Measurements taken from US11952586B2, “B-cell cultivation method” (Hoffmann-La Roche Inc., priority 2017, dated 2024).

Columns and labels:
single deposited B-cells = experiment: co-cultivation of single deposited B-cells with EL-4 B5 feeder cells; IgG in supernatant by ELISA; format: cell-based, rabbit; details: for frequency per plate of rbIgG-positive wells: PMA 0.73 ng/ml; for average productivity/plate, IgG+ wells / frequency/plate rbIgG+: non-immunized animal
Description: Single cell sorted B-cells were cultured in 96-well plates with 200 μl/well EL-4 B5 medium with Pansorbin Cells (SAC) (Calbiochem (Merck), Darmstadt, Deutschland), EL-4 B5 cells (0-5×10^4/well) and rabbit thymocyte supernatant or cytokine mix, respectively, for 7 days at 37° C. in an atmosphere of 5% CO2 in the incubator. B-cell culture supernatants were removed for screening and the cells harvested immediately for variable region gene cloning or frozen at −80° C. in 100 μl RLT buffer (Qiagen, Hilden, Germany).
A mixture of 0.5 μg/ml of biotinylated mouse anti-rabbit IgG antibody (Sigma-Aldrich) and 0.35 μg/ml anti-rabbit IgG HRP conjugate (Sigma-Aldrich) was transferred to 384 well streptavidin coated microtiter plates (MicroCoat Biotechnologie GmbH). Dilutions of B-cell supernatants in PBS supplemented with 0.5% BSA and 0.05% Tween®-20 were added and incubated for 90 min at RT. After repeated washing (6×) with PBST (phosphate buffered saline with 0.2% Tween buffer the plates were developed with BM Blue® HRP substrate solution and color formation was measured by absorbance at 370 nm. A commercial rabbit IgG (Sigma-Aldrich) was used as a calibration standard.

EL-4 B5 cells = experiment: vitality of irradiated EL-4 B5 cells in presence of PMA; format: cell-based, murine
Description: Different PMA concentrations in combination with single deposited cells of a non-immunized animal have been tested.

[1] = PMA 0.57 ng/ml, 50 Gy, 50k/Well
[2] = PMA 1.3 ng/ml, 3 Gy, 15k/Well, HSA immunized rabbit
[3] = c(PMA) 0.015 ng/ml, 4 Gy EL-4 B5
[4] = c(PMA) 0.03 ng/ml, 4 Gy EL-4 B5
[5] = c(PMA) 0.03 ng/ml, 50 Gy EL-4 B5
[6] = c(PMA) 0.06 ng/ml, 4 Gy EL-4 B5
[7] = c(PMA) 0.125 ng/ml, 4 Gy EL-4 B5
[8] = c(PMA) 0.25 ng/ml, 4 Gy EL-4 B5
[9] = c(PMA) 0.25 ng/ml, 50 Gy EL-4 B5
[10] = c(PMA) 1.3 ng/ml, 50 Gy EL-4 B5

CCCCCCCCCCCCCC(=O)O[C@@H]1[C@@H](C)[C@@]2(O)[C@@H](C=C(CO)C[C@]3(O)C(=O)C(C)=C[C@@H]23)[C@@H]2C(C)(C)[C@]12OC(C)=O [PMA, phorbol-12-myristate-13-acetate]
IgG+ Frequency (single deposited B-cells; PMA 0.57 ng/ml, 3 Gy, 15k/Well): 32.1 % total wells
Average IgG Productivity of all IgG+ wells (single deposited B-cells; PMA 0.57 ng/ml, 4 Gy, 20k/Well): 5.834 µg/mL
IgG+ Frequency (single deposited B-cells; PMA 0.57 ng/ml, 4 Gy, 20k/Well): 72.6 % total wells
Average IgG Productivity of all IgG+ wells (single deposited B-cells; PMA 0.57 ng/ml, 5 Gy, 20k/Well): 5.269 µg/mL
IgG+ Frequency (single deposited B-cells; PMA 0.57 ng/ml, 5 Gy, 20k/Well): 86.9 % total wells
Average IgG Productivity of all IgG+ wells (single deposited B-cells; PMA 0.57 ng/ml, 8 Gy, 20k/Well): 5.72 µg/mL
IgG+ Frequency (single deposited B-cells; PMA 0.57 ng/ml, 8 Gy, 20k/Well): 81 % total wells
Average IgG Productivity of all IgG+ wells (single deposited B-cells; [1]): 4.876 µg/mL
IgG+ Frequency (single deposited B-cells; [1]): 84.5 % total wells
frequency per plate of rbIgG-positive wells (single deposited B-cells; 0.031x CM, 5,000 non-irradiated EL-4 B5 cells per well): 76.2 % total
frequency per plate of rbIgG-positive wells (single deposited B-cells; 0.1x CM, 5,000 non-irradiated EL-4 B5 cells per well): 75.0 % total
frequency per plate of rbIgG-positive wells (single deposited B-cells; 0.31x CM, 5,000 non-irradiated EL-4 B5 cells per well): 67.9 % total
frequency per plate of rbIgG-positive wells (single deposited B-cells; 1x CM, 5,000 non-irradiated EL-4 B5 cells per well): 36.9 % total
frequency per plate of rbIgG-positive wells (single deposited B-cells; 2x CM, 5,000 non-irradiated (0 Gy) EL-4 B5 cells per well): 48.8 % total
Average IgG Productivity of all IgG+ wells (single deposited B-cells; [2]): 4.937 µg/mL
IgG+ Frequency (single deposited B-cells; [2]): 8.3 % total wells
Average IgG Productivity of all IgG+ wells (single deposited B-cells; PMA 1.3 ng/ml, 4 Gy, 20k/Well): 5.011 µg/mL
IgG+ Frequency (single deposited B-cells; PMA 1.3 ng/ml, 4 Gy, 20k/Well): 72.6 % total wells
Average IgG Productivity of all IgG+ wells (single deposited B-cells; PMA 1.3 ng/ml, 5 Gy, 20k/Well): 4.8 µg/mL
IgG+ Frequency (single deposited B-cells; PMA 1.3 ng/ml, 5 Gy, 20k/Well): 84.5 % total wells
Average IgG Productivity of all IgG+ wells (single deposited B-cells; PMA 1.3 ng/ml, 8 Gy, 20k/Well): 5.198 µg/mL
IgG+ Frequency (single deposited B-cells; PMA 1.3 ng/ml, 8 Gy, 20k/Well): 88.1 % total wells
Average IgG Productivity of all IgG+ wells (single deposited B-cells; PMA 1.3 ng/ml, 50 Gy, 50k/Well): 5.427 µg/mL
IgG+ Frequency (single deposited B-cells; PMA 1.3 ng/ml, 50 Gy, 50k/Well): 83.3 % total wells
average productivity/plate, IgG+ wells (single deposited B-cells; [3]): 3.90 µg/mL
frequency/plate rbIgG+ (single deposited B-cells; [3]): 54.0 % total
average productivity/plate, IgG+ wells (single deposited B-cells; [4]): 3.90 µg/mL
frequency/plate rbIgG+ (single deposited B-cells; [4]): 55.6 % total
average productivity/plate, IgG+ wells (single deposited B-cells; [5]): 1.36 µg/mL
frequency/plate rbIgG+ (single deposited B-cells; [5]): 52.4 % total
average productivity/plate, IgG+ wells (single deposited B-cells; [6]): 3.72 µg/mL
frequency/plate rbIgG+ (single deposited B-cells; [6]): 57.5 % total
average productivity/plate, IgG+ wells (single deposited B-cells; [7]): 3.78 µg/mL
frequency/plate rbIgG+ (single deposited B-cells; [7]): 56.0 % total
average productivity/plate, IgG+ wells (single deposited B-cells; [8]): 3.83 µg/mL
frequency/plate rbIgG+ (single deposited B-cells; [8]): 64.3 % total
average productivity/plate, IgG+ wells (single deposited B-cells; [9]): 2.48 µg/mL
frequency/plate rbIgG+ (single deposited B-cells; [9]): 54.4 % total
average productivity/plate, IgG+ wells (single deposited B-cells; c(PMA) 0.5 ng/ml, 4 Gy EL-4 B5): 4.06 µg/mL
frequency/plate rbIgG+ (single deposited B-cells; c(PMA) 0.5 ng/ml, 4 Gy EL-4 B5): 57.5 % total
average productivity/plate, IgG+ wells (single deposited B-cells; c(PMA) 1.3 ng/ml, 4 Gy EL-4 B5): 3.57 µg/mL
frequency/plate rbIgG+ (single deposited B-cells; c(PMA) 1.3 ng/ml, 4 Gy EL-4 B5): 56.0 % total
average productivity/plate, IgG+ wells (single deposited B-cells; [10]): 3.51 µg/mL
frequency/plate rbIgG+ (single deposited B-cells; [10]): 58.7 % total
Vitality (EL-4 B5 cells; c(PMA) 0.03 ng/ml, 4 Gy): 54.8%
Vitality (EL-4 B5 cells; c(PMA) 0.03 ng/ml, 50 Gy): 3.9%
Vitality (EL-4 B5 cells; c(PMA) 0.06 ng/ml, 4 Gy): 45.4%
Vitality (EL-4 B5 cells; c(PMA) 0.125 ng/ml, 4 Gy): 39.8%
Vitality (EL-4 B5 cells; c(PMA) 0.25 ng/ml, 4 Gy): 34%
Vitality (EL-4 B5 cells; c(PMA) 0.25 ng/ml, 50 Gy): 9.5%
Vitality (EL-4 B5 cells; c(PMA) 0.5 ng/ml, 4 Gy): 32.2%
Vitality (EL-4 B5 cells; c(PMA) 1.3 ng/ml, 4 Gy): 19.2%
Vitality (EL-4 B5 cells; c(PMA) 1.3 ng/ml, 50 Gy): 17.4%
